ChEMBL document CHEMBL2034833, “Synthesis of chalcone-amidobenzothiazole conjugates as antimitotic and apoptotic inducing agents” (Bioorg Med Chem, 2012)
pIC50: −log10 of the molar value. Calls of active or inactive are those of the source. The calls are words filed in the database; no cut-off is given here.

Experiments:
OVCAR-5 = assay: Growth inhibition of human OVCAR5 cells after 48 hrs by sulforhodamine B assay; type: functional; details: OVCAR-5, 48 h
NCI-H322M = assay: Growth inhibition of human NCI-H322M cells after 48 hrs by sulforhodamine B assay; type: functional
T47D = assay: Growth inhibition of human T47D cells after 48 hrs by sulforhodamine B assay; type: functional
SNB-75 = assay: Growth inhibition of human SNB75 cells after 48 hrs by sulforhodamine B assay; type: functional; details: SNB-75, 48 h
SK-MEL-28 = assay: Growth inhibition of human SK-MEL-28 cells after 48 hrs by sulforhodamine B assay; type: functional; details: SK-MEL-28, 48 h
A549 [1] = assay: cells; details: Homo sapiens, A549, 48 h
Description: Cytotoxicity against human A549 cells after 48 hrs by MTT assay

K562 = assay: Growth inhibition of human K562 cells after 48 hrs by sulforhodamine B assay; type: functional; details: K562, 48 h
UACC-62 = assay: Growth inhibition of human UACC62 cells after 48 hrs by sulforhodamine B assay; type: functional; details: UACC-62, 48 h
CCRF-CEM = assay: Growth inhibition of human CCRF-CEM cells after 48 hrs by sulforhodamine B assay; type: functional
NCI-H23 = assay: Growth inhibition of human NCI-H23 cells after 48 hrs by sulforhodamine B assay; type: functional; details: NCI-H23, 48 h
A549 [2] = assay: Induction of apoptosis in human A549 cells assessed as necrotic cells at 2 uM after 48 hrs by annexin-V FITC/propidium iodide staining based FACS analysis; type: functional
EKVX = assay: Growth inhibition of human EKVX cells after 48 hrs by sulforhodamine B assay; type: functional
Malme-3M = assay: Growth inhibition of human MALME-3M cells after 48 hrs by sulforhodamine B assay; type: functional
SN12C = assay: Growth inhibition of human SN12C cells after 48 hrs by sulforhodamine B assay; type: functional
A549 [3] = assay: Cell cycle arrest in human A549 cells assessed as cell accumulation at subG1 phase at 4 uM after 48 hrs by propidium iodide staining based flow cytometry (reference value: […]); type: functional
Hs-578T = assay: Growth inhibition of human Hs578T cells after 48 hrs by sulforhodamine B assay; type: functional
M14 = assay: Growth inhibition of human M14 cells after 48 hrs by sulforhodamine B assay; type: functional; details: M14, 48 h
786-0 = assay: Growth inhibition of human 786-0 cells after 48 hrs by sulforhodamine B assay; type: functional; details: 786-0, 48 h
MDA-MB-231 = assay: Growth inhibition of human MDA-MB-231 cells after 48 hrs by sulforhodamine B assay; type: functional; details: MDA-MB-231, 48 h
A549 [4] = assay: Induction of apoptosis in human A549 cells assessed as early apoptotic cells at 2 uM after 48 hrs by annexin-V FITC/propidium iodide staining based FACS analysis; type: functional
RPMI-8226 = assay: Growth inhibition of human RPMI8226 cells after 48 hrs by sulforhodamine B assay; type: functional; details: RPMI-8226, 48 h
MCF7 [5] = assay: Growth inhibition of human MCF7 cells after 48 hrs by sulforhodamine B assay; type: functional; details: MCF7, 48 h
OVCAR-4 = assay: Growth inhibition of human OVCAR4 cells after 48 hrs by sulforhodamine B assay; type: functional; details: OVCAR-4, 48 h
MDA-MB-435 = assay: Growth inhibition of human MDA-MB-435 cells after 48 hrs by sulforhodamine B assay; type: functional; details: MDA-MB-435, 48 h
ACHN = assay: Growth inhibition of human ACHN cells after 48 hrs by sulforhodamine B assay; type: functional
A549 [6] = assay: Cell cycle arrest in human A549 cells assessed as cell accumulation at G0/G1 phase at 4 uM after 48 hrs by propidium iodide staining based flow cytometry (reference value: 70.15%); type: functional
BT-549 = assay: Growth inhibition of human BT549 cells after 48 hrs by sulforhodamine B assay; type: functional; details: BT-549, 48 h
KM12 = assay: Growth inhibition of human KM12 cells after 48 hrs by sulforhodamine B assay; type: functional; details: KM12, 48 h
SK-MEL-2 = assay: Growth inhibition of human SK-MEL-2 cells after 48 hrs by sulforhodamine B assay; type: functional; details: SK-MEL-2, 48 h
A549 [7] = assay: Cell cycle arrest in human A549 cells assessed as cell accumulation at S phase at 4 uM after 48 hrs by propidium iodide staining based flow cytometry (reference value: […]); type: functional
SK-MEL-5 = assay: Growth inhibition of human SK-MEL-5 cells after 48 hrs by sulforhodamine B assay; type: functional; details: SK-MEL-5, 48 h
MDA-MB-468 = assay: Growth inhibition of human MDA-MB-468 cells after 48 hrs by sulforhodamine B assay; type: functional; details: MDA-MB-468, 48 h
HT-29 = assay: Growth inhibition of human HT-29 cells after 48 hrs by sulforhodamine B assay; type: functional; details: HT-29, 48 h
[8] = Inhibition of tubulin polymerization at 3 uM after 1 hr by fluorescence assay
SK-OV-3 = assay: Growth inhibition of human SKOV3 cells after 48 hrs by sulforhodamine B assay; type: functional; details: SK-OV-3, 48 h
NCI-H460 = assay: Growth inhibition of human NCI-H460 cells after 48 hrs by sulforhodamine B assay; type: functional; details: NCI-H460, 48 h
RXF 393 = assay: Growth inhibition of human RXF393 cells after 48 hrs by sulforhodamine B assay; type: functional; details: RXF 393, 48 h
MCF7 [9] = assay: cells; details: Homo sapiens, MCF7, 48 h
Description: Cytotoxicity against human MCF7 cells after 48 hrs by MTT assay

SNB-19 = assay: Growth inhibition of human SNB19 cells after 48 hrs by sulforhodamine B assay; type: functional; details: SNB-19, 48 h
Tubulin (Homo sapiens) = Tubulin (Homo sapiens) (UniProt P68371+Q9H4B7+P0DPH7+P68366+Q13509+Q71U36+P04350+Q3ZCM7+P07437+P68363+Q9BQE3+Q6PEY2+Q13885+Q9BVA1+Q9BUF5); assay: Inhibition of tubulin polymerization in human A549 cells assessed as disrupted microtubule organization at 2 uM after 48 hrs by immunohistochemistry analysis; type: cell-based

- GI50 (OVCAR-5): 4760 nM
- GI50 (NCI-H322M): 2770 nM
- GI50 (T47D): 3080 nM
- GI50 (SK-MEL-28): 3310 nM
- pIC50 (A549 [1]): 6.05
- GI50 (K562): 430 nM
- GI50 (CCRF-CEM): 2500 nM
- GI50 (NCI-H23): 2150 nM
- GI50 (786-0): 2260 nM
- GI50 (MDA-MB-231): 2010 nM
- GI50 (RPMI-8226): 2020 nM
- GI50 (MCF7 [5]): 1320 nM
- GI50 (OVCAR-4): 2070 nM
- GI50 (MDA-MB-435): 300 nM
- GI50 (ACHN): 1620 nM
- GI50 (BT-549): 2710 nM
- GI50 (SK-MEL-2): 4970 nM
- GI50 (SK-MEL-5): 2030 nM
- GI50 (MDA-MB-468): 3520 nM
- GI50 (HT-29): 3660 nM
- inhibition [8]: 63.1%
- GI50 (SK-OV-3): 2160 nM
- GI50 (NCI-H460): 2430 nM
- pIC50 (MCF7 [9]): 5.48
- inhibition (Tubulin (Homo sapiens)): Active
Compound: COc1ccc(/C=C/C(=O)c2cc(OC)c(OC)c(OC)c2)cc1OCC(=O)Nc1nc2ccc(OC(F)(F)F)cc2s1
- GI50 (SNB-75): 340 nM
- GI50 (UACC-62): 9520 nM
- Activity (A549 [2]): 6.2%
- GI50 (EKVX): 5110 nM
- GI50 (Malme-3M): 2690 nM
- GI50 (SN12C): 1740 nM
- Activity (A549 [3]): 3.21%
- GI50 (Hs-578T): 3080 nM
- GI50 (M14): 1720 nM
- Activity (A549 [4]): 1.3%
- Activity (A549 [6]): 8.68%
- GI50 (KM12): 1510 nM
- Activity (A549 [7]): 4.95%
- GI50 (RXF 393): 1580 nM
- GI50 (SNB-19): 1580 nM
